Results on one compound are retold here after article PMC6014988, “Precision therapeutic targeting of human cancer cell motility” (Nature Communications, 2018).

In series [1] the test system is human breast cancer LM2-4H2N cells. Kind of series: Breast cancer orthotopic implantation and resection survival model. The format is in vivo, mouse. Particulars: 25 mg/kg oral gavage five times per week, post-surgery adjuvant setting. On the procedure: Breast cancer: orthotopic implantation: Orthotopic implantation of 2 × 10^6 dTomato-LM2-4H2N cells in matrigel:PBS human breast cancer cells into 5–6 week old female SCID-Beige mice (Taconic), followed by resection of resultant primary tumor, provides a model wherein survival is dictated by metastatic burden, and was performed as described. KBU2046 treatment by oral gavage 5 days per week began 4 weeks after resection, with weekly IVIS imaging. Animals were excluded from the analysis if they died and/or met the criteria for euthanasia in the 7 day post-operative period. Experimental groups were randomly assigned based upon size of primary tumor before treatment, in and manner that ensured equal distribution of tumor sizes across treatment groups.

Series [2] is described as follows: Three-day MTT cell growth inhibition assay, 1542NPTX. The format is cell-based, human. Particulars: human, 1542NPTX cells.
Another series deals with 1542NPTX. Described as above. The format is cell-based, human. Particulars: Homo sapiens, 72 h, 3 days.
Series [3] deals with T1, Isovaleryl-CoA dehydrogenase (Homo sapiens, UniProt P26440).
T1 construct: purchased Invitrogen
Nature of the series: ProtoArray binding, Isovaleryl-CoA dehydrogenase. Particulars: 10 fold excess free KBU2046. The method, then: The ProtoArray® assay, using the Human Protein Microarray platform, was performed by Invitrogen. […]
followed by detection with FITC-streptavidin, and visualization by fluorescent microscopy (with equal exposure times). (d) Protein array hybridization. KBU2046-biotin was hybridized to ProtoArray® Human Protein Microarray’s at 0.5 and 10 µM with and without 10 fold excess free KBU2046. We first sought proteins that met the following criteria, and did so at both 0.5 and 10 µM concentrations of KBU2046-biotin (in the absence of free KBU2046): Z-Score greater than 2.5, Z-Factor greater than 0.5, CI P-value less than 0.05, negative control value <2,000 (relative fluorescence units; RFUs), and a signal/negative control signal of >10 and >5 for 10 µM and 0.5 µM conditions, respectively. This yielded 3 proteins, shown in table, for an initial hit rate of 0.03%. We then required free KBU2046 to inhibit binding by >75%. Of the two remaining candidates, we eliminated isovaleryl-CoA dehydrogenase (ICD). Its binding signal doubled on […]
suspected non-specific binding by the biotin-linker moiety. We deemed cysteine and glycine-rich protein 1 (CSRP1) our top priority protein, though its binding characteristics at 10 µM + free KBU2046 were similar to ICD, albeit not as extreme. We thus evaluated whether KBU2046- […]
There were two additional notable findings from protein array studies. […]

For another series, the target named is T2, HSP90β (Homo sapiens, UniProt P08238).
T2 construct: made in house; host or cells: Rosetta BL-21 E. coli
Nature of the series: Biophysical binding assays and DARTS, isolated HSP90β. Particulars: ITC, thermal shift, biolayer interferometry, dynamic light scattering, DARTS. On the procedure:
Fluorescent thermal shift, isothermal titration calorimetry, and biolayer interferometry assays[46] were all performed as described by us using MEK4EE (37-399, S257E, T261E) cloned into pMCSG7 and KRX Competent E. coli cells (Promega Inc.) and above denoted full-length HSP90B and CDC37 vectors and Rosetta BL-21 and BL-21 DE-3 competent E. coli cells, respectively. DARTS assays were conducted as described, using equimolar amounts of CDC37 and HSP90β, thermolysin digestion, and silver stain visualization (ProteoSilver Silver Stain Kit, Sigma-Aldrich).
Supplementary Figure 14. […] Studies used purified […]
recombinant HSP90β or CDC37. Fluorescent thermal shift 5, isothermal titration calorimetry 6, […]
evidence of KBU2046 binding to either HSP90β or CDC37 (data not shown). For DARTS assay, HSP90β or CDC37 were individually pre-incubated with KBU2046, thermolysin added, and reaction products were separated by SDS PAGE and visualized by silver stain (depicted above).
NTco – no thermolysin control. However, when the DARTS assay was conducted with both HSP90β and CDC37 present, KBU2046 protected both proteins from degradation in a concentration-dependent manner (see manuscript Fig 5A).
(also on this page, place not known: HSP90 Ntco 0 0.001 0.01 0.1 1.0 10 µM KBU2046, thermolysin NTco thermolysin CDC37)
(§1) (1 picture or pasted object on this page, not shown here)

The test system of a further series is NCI-60 cell line panel. Kind of series: NCI 60 cell line panel screening. The format is cell-based, human. Particulars: initial screening per DTP protocol. On the procedure:
panel. KBU2046 was submitted to the Developmental Therapeutics Program (DTP) of the US National Cancer Institute (NCI), underwent initial screening across the NCI 60 cell line panel per DTP protocol 1, and the resultant COMPARE diagram is depicted above. Based upon its lack of […]
Supplementary Figure 3. […] Estrogen […]
receptor positive MCF-7 cells were cultured under hormone free conditions transfected pERE-Luc or empty control vector, along with constitutive active β-gal, grown under estrogen-free conditions, and pre-treated for 24 hours with nanomolar concentrations of estradiol, or with micromolar concentrations of genistein or KBU2046, as indicated. Luciferase activity was measured, normalized to that of β-gal, and values expressed as the percent of untreated vector control cells. Values are the mean±SD of a single experiment, with similar results seen in a separate repeat experiment, both in replicates of N=2.
(also on this page, place not known: luciferase/B-gal activity, % untreated vector control)
as §1

For series [4], the system named is human cord blood CD34+ stem cells. Kind of series: Hematopoietic stem cell colony formation assay. It counts as cell-based. On the procedure: Fourteen-day colony formation assays were conducted as described by us[39], using human cord blood CD34+ stem cells (AllCells Inc.), using MethoCultExpress™ colony growth media (StemCell Technologies Inc.), performed in replicates of N = 2.

Some results are limits rather than exact numbers.

T1 sequence (P26440 33-426): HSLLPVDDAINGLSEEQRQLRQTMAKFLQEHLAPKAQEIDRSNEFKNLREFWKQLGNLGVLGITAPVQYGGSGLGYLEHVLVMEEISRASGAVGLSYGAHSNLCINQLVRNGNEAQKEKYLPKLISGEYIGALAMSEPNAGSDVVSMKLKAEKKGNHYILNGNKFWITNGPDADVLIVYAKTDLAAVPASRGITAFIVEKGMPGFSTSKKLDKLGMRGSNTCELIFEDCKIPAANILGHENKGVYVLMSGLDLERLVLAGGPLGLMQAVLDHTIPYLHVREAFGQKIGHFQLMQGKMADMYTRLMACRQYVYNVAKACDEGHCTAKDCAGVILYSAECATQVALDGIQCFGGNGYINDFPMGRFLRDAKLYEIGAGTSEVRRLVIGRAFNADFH
T2 sequence (P08238 whole entry): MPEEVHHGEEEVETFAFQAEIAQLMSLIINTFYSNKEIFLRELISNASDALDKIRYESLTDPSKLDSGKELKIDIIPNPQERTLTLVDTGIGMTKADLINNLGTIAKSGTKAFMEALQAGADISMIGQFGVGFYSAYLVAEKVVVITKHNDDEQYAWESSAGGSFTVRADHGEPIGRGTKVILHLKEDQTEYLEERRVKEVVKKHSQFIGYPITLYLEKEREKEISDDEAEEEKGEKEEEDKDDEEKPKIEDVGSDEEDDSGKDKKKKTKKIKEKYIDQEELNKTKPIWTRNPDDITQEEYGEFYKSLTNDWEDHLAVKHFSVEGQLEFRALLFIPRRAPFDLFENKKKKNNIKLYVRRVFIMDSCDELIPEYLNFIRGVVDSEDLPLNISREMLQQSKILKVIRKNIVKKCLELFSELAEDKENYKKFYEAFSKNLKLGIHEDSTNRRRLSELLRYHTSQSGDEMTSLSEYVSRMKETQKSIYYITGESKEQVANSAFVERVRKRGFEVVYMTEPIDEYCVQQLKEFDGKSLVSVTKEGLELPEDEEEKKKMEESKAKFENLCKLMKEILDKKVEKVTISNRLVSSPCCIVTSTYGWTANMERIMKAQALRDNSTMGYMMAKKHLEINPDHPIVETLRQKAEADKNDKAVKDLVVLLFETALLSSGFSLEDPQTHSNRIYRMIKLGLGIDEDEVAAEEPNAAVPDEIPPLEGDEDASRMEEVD

Regarding `O=C1c2ccccc2OCC1c1ccc(F)cc1` (racemic) [KBU2046, (±)-3(4-fluorophenyl)chroman-4-one], the survival result in series [1] is recorded as “significantly prolonged the survival”. In series [2], the viability at 3 days, 50 µM was 107%. The IC20 in the series on 1542NPTX is more than 50 µM. Also, the IC50 in the series with 1542NPTX is more than 50 µM. The “% inhibition by competitor” value is recorded as 80% in series [3] (0.5 uM KBU2046-biotin) and 12% in series [3] (10 uM KBU2046-biotin). Further, the “binding to HSP90β” value on HSP90β was “no evidence of KBU2046 binding”. Moreover, the “toxicity to NCI-60 cells” value in the series on NCI-60 cell line panel is given as “not toxic”. Besides, in series [4] (14 days), the “toxicity to human bone marrow stem cells” value is recorded as “not toxic”. In addition, in series [4] (up to 40 micromolar for 14 days), the “toxicity to stem cells” value is given as “no toxicity”.

A word on the viability: it is a read-out of living cells in per cent, often relative to untreated cells. Broadly, the IC20 is the point of the concentration-response curve where the effect stands at 20%. The low end stands for an effect from little substance, the high end for a need for much substance. What is called IC50 is the concentration at which inhibition is half-maximal. A higher IC50 goes with weaker potency.
